Data published in patent US20120077685A1, “INTRATUMORAL GENE EXPRESSION LEVELS OF TP AND VEGF ARE ASSOCIATED WITH CLINICAL OUTCOMES IN RECTAL CANCER PATIENTS TREATED WITH 5-FLUOROURACIL AND PELVIC RADIATION” (University of Southern California, priority 2010, published 2012).

Key:
[1] = test system: stage II/III rectal cancer; assay: Phase III trial (INT-0144, S9304) of 5-FU and radiation: disease-free survival by intratumoral gene expression tertile; assay type: in vivo, human
Protocol: Methods: A total of 422 stage II/III rectal patients from a phase III trial (INT-0144, […]) of three regimens of 5-FU and radiation were available for gene expression assays. mRNA was extracted from laser-capturemicrodissected tumor tissue. cDNA was prepared by reverse transcription and quantitation of the candidate genes was performed using a fluorescence-based real-time detection method. The gene expression data were analyzed by splitting the expression data into three (tertiles) groups using 33rd and 66th percentile.

[2] = test system: stage II/III rectal cancer; conditions: neo-adjuvant or adjuvant 5-FU and radiation therapy; cited from earlier work

O=c1[nH]cc(F)c(=O)[nH]1 [5-FU, 5-fluorouracil]
three year DFS ([1]; patients with high TP gene expression (tertile)): 79% | three year DFS ([1]; patients with high VEGF gene expression (tertile)): 65% | three year DFS ([1]; patients with low TP gene expression (tertile)): 65% | three year DFS ([1]; patients with low VEGF gene expression (tertile)): 77% | three year DFS ([1]; patients with median TP gene expression (tertile)): 67% | three year DFS ([1]; patients with median VEGF gene expression (tertile)): 69% | overall 5-year survival rate [2]: approximately 50%
